# Publication PMC11992225, “Antibacterial compounds against non-growing and intracellular bacteria” (npj Antimicrobials and Resistance, 2025)
# Read-outs that look alike come from different tables or passages of the source.
# Legend:
# E. coli CFT073 (UPEC) = test: MIC, standard microdilution assay, growing UPEC; format: cell-based, Escherichia coli
# Method in brief: (§1)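 Medium: CA-MHB + 40 mM HEPES, pH 7.4 (UPEC, P. aeruginosa, S. aureus); LPM + 30 mM MES, pH 5.5 (UPEC, extra condition); TSB (S. flexneri). Microdilution format, n = 3.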
# non-growing UPEC CFT073 = test: Dilution-regrowth assay (screen, hit validation, dose-response) on stationary-phase UPEC; format: cell-based, Escherichia coli; details: for Regrowth: OD600 after dilution into drug-free medium (mean): OD600 at 6h or 8h
# Method in brief: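 Regrowth (OD600 after 6 h, 37 °C) of diluted non-growing CFT073, following 24 h compound treatment of 24 h stationary cultures, defines activity relative to untreated control. Screen at 20 µM, validation at 20, 10, 5 µM (duplicates), dose–response in three biological replicates fitted by five-parameter logistic.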
# [1] = test system: intracellular S. flexneri 5a M90T in TC7 cells; test: microbe, parasite or virus in culture; format: cell-based, Shigella flexneri
# P. aeruginosa DSM1117 = test: MIC, standard microdilution assay, growing P. aeruginosa; format: cell-based, Pseudomonas aeruginosa; details: P. aeruginosa
# Method in brief: as §1
# S. flexneri 5a M90T = test: MIC in tryptic soy broth, S. flexneri; format: cell-based, Shigella flexneri; details: for MIC: Shigella flexneri, 5AM90T, read-out: MIC (μM) TSB
# Method in brief: as §1
# S. aureus DSM2569 = test: MIC, standard microdilution assay, growing S. aureus; format: cell-based, Staphylococcus aureus; details: S. aureus, CA-MHB pH 7.4, read-out: MIC (μM) CA-MHB
# Method in brief: as §1
# [2] = Escherichia coli, E. coli, pH 7.4, CA-MHB, read-out: MIC (μM) CA-MHB
# [3] = TC7 cells infected with GFP-expressing S. flexneri, 14 h treatment
# [4] = Pseudomonas aeruginosa, DSM1117, CA-MHB pH 7.4, read-out: MIC (μM) CA-MHB
smiles,measurement,setting,value
CO[C@H]1/C=C/O[C@@]2(C)Oc3c(C)c(O)c4c(O)c(c(/C=N/N5CCN(C6CCCC6)CC5)c(O)c4c3C2=O)NC(=O)/C(C)=C\C=C\[C@H](C)[C@H](O)[C@@H](C)[C@@H](O)[C@@H](C)[C@H](OC(C)=O)[C@@H]1C [Rifapentine],MIC,"E. coli CFT073 (UPEC); Escherichia coli, E. coli, LPM pH 5.5, read-out: MIC",0.25 µM
same,MIC,"E. coli CFT073 (UPEC); Escherichia coli, E. coli, pH 7.4, 1:4 diluted CA-MHB, read-out: MIC (μM) 1:4 CA-MHB",5 µM
same,MIC,E. coli CFT073 (UPEC); [2],8 µM
same,Regrowth: OD600 after dilution into drug-free medium (mean),"non-growing UPEC CFT073; E. coli in 1:4 CA-MHB (pH 7.4), concentration 0.25",0.612
same,Regrowth: OD600 after dilution into drug-free medium (mean),"non-growing UPEC CFT073; E. coli in 1:4 CA-MHB (pH 7.4), concentration 0.5",0.591
same,Regrowth: OD600 after dilution into drug-free medium (mean),"non-growing UPEC CFT073; E. coli in 1:4 CA-MHB (pH 7.4), concentration 1",0.589
same,Regrowth: OD600 after dilution into drug-free medium (mean),"non-growing UPEC CFT073; E. coli in 1:4 CA-MHB (pH 7.4), concentration 2.5",0.581
same,Regrowth: OD600 after dilution into drug-free medium (mean),"non-growing UPEC CFT073; E. coli in 1:4 CA-MHB (pH 7.4), concentration 5",0.558
same,Regrowth: OD600 after dilution into drug-free medium (mean),"non-growing UPEC CFT073; E. coli in 1:4 CA-MHB (pH 7.4), concentration 10",0.549
same,Regrowth: OD600 after dilution into drug-free medium (mean),"non-growing UPEC CFT073; E. coli in 1:4 CA-MHB (pH 7.4), concentration 30",0.527
same,Regrowth: OD600 after dilution into drug-free medium (mean),"non-growing UPEC CFT073; E. coli in LPM (pH 5.5), concentration 0.25",0.548
same,Regrowth: OD600 after dilution into drug-free medium (mean),"non-growing UPEC CFT073; E. coli in LPM (pH 5.5), concentration 0.5",0.505
same,Regrowth: OD600 after dilution into drug-free medium (mean),"non-growing UPEC CFT073; E. coli in LPM (pH 5.5), concentration 1",0.379
same,Regrowth: OD600 after dilution into drug-free medium (mean),"non-growing UPEC CFT073; E. coli in LPM (pH 5.5), concentration 2.5",0.232
same,Regrowth: OD600 after dilution into drug-free medium (mean),"non-growing UPEC CFT073; E. coli in LPM (pH 5.5), concentration 5",0.178
same,Regrowth: OD600 after dilution into drug-free medium (mean),"non-growing UPEC CFT073; E. coli in LPM (pH 5.5), concentration 10",0.148
same,Regrowth: OD600 after dilution into drug-free medium (mean),"non-growing UPEC CFT073; E. coli in LPM (pH 5.5), concentration 30",0.112
same,EC50,"non-growing UPEC CFT073; Escherichia coli, E. coli, LPM pH 5.5, regrowth delay of non-growing bacteria, 24 h treatment, OD600 6 h after 2500-fold dilution, read-out: EC50",1160 nM
same,EC50,"non-growing UPEC CFT073; Escherichia coli, LPM pH 5.5 (red curve), medium assigned by comparison with Dataset 1, read-out: EC50 (regrowth inhibition curve, Fig. S4)",1190 nM
same,IC50,"[1]; Shigella flexneri, TC7, 14 h",3090 nM
same,"Fluorescence intensity (RFU), Mean, 0.0625 x MIC","[1]; TC7 cells infected with GFP-expressing S. flexneri, 14 h treatment, 0.0625 x MIC",10012.8 RFU
same,"Fluorescence intensity (RFU), Mean, 0.125 x MIC","[1]; TC7 cells infected with GFP-expressing S. flexneri, 14 h treatment, 0.125 x MIC",10655.7 RFU
same,"Fluorescence intensity (RFU), Mean, 0.25 x MIC",[1]; [3],3668.46 RFU
same,"Fluorescence intensity (RFU), Mean, 0.5 x MIC",[1]; [3],1616.31 RFU
same,"Fluorescence intensity (RFU), Mean, 2 x MIC",[1]; [3],1321.39 RFU
same,"Fluorescence intensity (RFU), Mean, 4 x MIC",[1]; [3],1243.06 RFU
same,"Fluorescence intensity (RFU), Mean, 8 x MIC",[1]; [3],1167.19 RFU
same,"Fluorescence intensity (RFU), Mean, 16 x MIC",[1]; [3],915.083 RFU
same,"Fluorescence intensity (RFU), Mean, MIC",[1]; [3],1458.03 RFU
same,MIC,P. aeruginosa DSM1117; [4],80 µM
same,MIC,S. flexneri 5a M90T,16 µM
same,MIC,"S. aureus DSM2569; Staphylococcus aureus, DSM2569",0.0125 µM
NC1CCN(c2c(F)cc3c(=O)c(C(=O)O)cn(C4CC4)c3c2Cl)C1 (stereo not drawn) [Clinafloxacin],MIC,E. coli CFT073 (UPEC); [2],0.0125 µM
same,MIC,"E. coli CFT073 (UPEC); Escherichia coli, see Dataset 1, read-out: MIC (lowest measured MIC for all hit compounds)",0.0125 µM
same,EC50,"non-growing UPEC CFT073; Escherichia coli, E. coli, pH 7.4, regrowth delay of non-growing bacteria, 1:4 CA-MHB, 24 h treatment, OD600 6 h after 2500-fold dilution, read-out: EC50",906 nM
same,IC50,"[1]; Shigella flexneri, TC7, 14 h",10 nM
same,"Fluorescence intensity (RFU), Mean, 0.25 x MIC",[1]; [3],7691.46 RFU
same,"Fluorescence intensity (RFU), Mean, 0.5 x MIC",[1]; [3],5544.33 RFU
same,"Fluorescence intensity (RFU), Mean, 2 x MIC",[1]; [3],3160.53 RFU
same,"Fluorescence intensity (RFU), Mean, 4 x MIC",[1]; [3],3034.56 RFU
same,"Fluorescence intensity (RFU), Mean, 8 x MIC",[1]; [3],2732.08 RFU
same,"Fluorescence intensity (RFU), Mean, 16 x MIC",[1]; [3],2021.17 RFU
same,"Fluorescence intensity (RFU), Mean, 32 x MIC",[1]; [3],1621.75 RFU
same,"Fluorescence intensity (RFU), Mean, MIC",[1]; [3],4423.92 RFU
same,MIC,"P. aeruginosa DSM1117; Pseudomonas aeruginosa, DSM1117, 1:4 diluted CA-MHB pH 7.4, read-out: MIC (μM) 1:4 CA-MHB",0.25 µM
same,MIC,P. aeruginosa DSM1117; [4],0.5 µM
same,MIC,S. flexneri 5a M90T,0.0156 µM
same,MIC,"S. aureus DSM2569; Staphylococcus aureus, DSM2569",0.125 µM
N[C@@H]1CN(c2c(F)cc3c(=O)c(C(=O)O)cn([C@@H]4C[C@@H]4F)c3c2Cl)CC12CC2 [Sitafloxacin],MIC,"E. coli CFT073 (UPEC); E. coli, LPM pH 5.5, read-out: MIC",0.5 µM
same,MIC,"E. coli CFT073 (UPEC); E. coli, pH 7.4, CA-MHB, read-out: MIC (μM) CA-MHB",0.025 µM
same,EC50,"non-growing UPEC CFT073; E. coli, LPM pH 5.5, regrowth delay of non-growing bacteria, 24 h treatment, OD600 6 h after 2500-fold dilution, read-out: EC50",10800 nM
same,EC50,"non-growing UPEC CFT073; E. coli, pH 7.4, regrowth delay of non-growing bacteria, 1:4 CA-MHB, 24 h treatment, OD600 6 h after 2500-fold dilution, read-out: EC50",187 nM
same,"Fluorescence intensity (RFU), Mean, 2 x MIC",[1]; [3],4007.53 RFU
same,"Fluorescence intensity (RFU), Mean, 4 x MIC",[1]; [3],3422.83 RFU
same,"Fluorescence intensity (RFU), Mean, 8 x MIC",[1]; [3],3200.25 RFU
same,"Fluorescence intensity (RFU), Mean, 16 x MIC",[1]; [3],2414.89 RFU
same,"Fluorescence intensity (RFU), Mean, 32 x MIC",[1]; [3],2083.61 RFU
same,"Fluorescence intensity (RFU), Mean, MIC",[1]; [3],5217.75 RFU
same,IC50,"[1]; intracellular S. flexneri in TC7 cells, GFP fluorescence after 14 h treatment, read-out: IC50",25 nM
same,MIC,"P. aeruginosa DSM1117; 1:4 diluted CA-MHB pH 7.4, read-out: MIC (μM) 1:4 CA-MHB",0.5 µM
same,MIC,"P. aeruginosa DSM1117; CA-MHB pH 7.4, read-out: MIC (μM) CA-MHB",0.5 µM
same,MIC (μM) TSB,"S. flexneri 5a M90T; S. flexneri, extracellular bacteria in TSB",0.01562 µM
same,MIC,S. aureus DSM2569,0.125 µM
